The target in one data set is PDE 4. Put plainly: Inhibition of phosphodiesterase 4 (enzyme preparation from human PMNL, [3H]-cAMP). Conditions: PDE 4 from human PMNL cytosol, 0.5 μM [3H]-cAMP. Type of data set: biochemical. The method, then:
The PDE 4 activity is determined in enzyme preparations from human polymorphonuclear […] (PMNL) and the PDE 2, 3 and 5 activity is determined with PDE from human thrombocytes. Human blood was anti-coagulated with citrate. By centrifuging at 700×g for 20 minutes at room temperature, the thrombocyte-rich plasma in the supernatant is separated from the erythrocytes and leukocytes. The thrombocytes are lysed by ultrasound and used in the PDE 3 and PDE 5 assays. For the determination of the PDE 2 activity, the cytosolic thrombocyte fraction is purified on an anionic exchange column by means of NaCl gradients and the PDE 2 peak is obtained for the assay. The PMNLs for the PDE 4 determination are isolated by a subsequent dextran sedimentation, followed by a gradient centrifugation with Ficoll-Paque. After the cells have been washed twice, the erythrocytes, still contained, are lysed within 6 minutes at 4° C. by the addition of 10 mL of hypotonic buffer (155 mM of NH4Cl, 10 mM of NaHCO3, 0.1 mM of EDTA, pH=7.4). The PMNLs, which are still intact, are washed twice with PBS and lysed with ultrasound. The supernatant of a one-hour centrifugation at 4° C. at 48,000×g contains the cytosolic fraction of the PDE 4 and is used for the PDE 4 measurements.
The phosphodiesterase activity is determined using the method described by Thompson et al. with some modifications (Thompson, W. J. and M. M. Appleman, Assay of cyclic nucleotide phosphodiesterase and resolution of multiple molecular forms of the enzyme, Adv. Cycl. Nucl. Res. 1979, 10, 69–92).
The reaction mixtures contain 50 mM of tris hydrochloride (pH 7.4), 5 mM of magnesium chloride, the inhibitors in various concentrations, the corresponding enzyme preparation as well as the further components necessary for determining the individual isoenzymes (see below). The reaction is started by the addition of the substrate, 0.5 μM of [^3H]-cAMP or [^3H]-cGMP (approximately 6000 CPM per test). The final volume is […]. Test substances are mixed as stock solutions in DMSO. The DMSO concentration in the reaction mixture is 1% v/v. The PDE activity is not affected by this concentration of DMSO. After the reaction is started by the addition of substrate, samples are incubated for 30 minutes at 37° C. The reaction is stopped by heating the test tubes for 2 minutes at 110° C. The samples remain for a further 10 minutes in ice. The addition of 30 μL of 5′-nucleotidase (1 mg/mL, from a poisonous snake suspension from Crotalus adamanteus) is followed by a 10-minutes incubation at 37° C. The samples are stopped on ice, in each case 400 μL of a mixture of Dowex, water and ethanol (1+1+1) is added, mixed well and incubated once again for 15 minutes on ice. The reaction vessels are centrifuged for 20 minutes at 3000×g. Aliquots of the supernatant (200 μL) are transferred directly to scintillation vessels. After the addition of 3 mL of scintillator, the samples are measured in the beta counter.
[^3H]-cAMP is used as substrate for the determination of the PDE 4, 3 and 2 activity and [^3H]-cGMP is used as substrate for the determination of the PDE 5 activity. The enzyme activities, which are nonspecific in each case, are determined in the presence of 100 μM of Rolipram for the determination of PDE 4 and in the presence of 100 μM of IBMX for the determination of the PDE 3 and 5 and subtracted from the test values. The incubation formulations of the PDE 3 assays contained 10 μM of Rolipram, in order to inhibit possible contaminations by PDE 4. The PDE 2 is tested with an SPA assay of the Amersham Company. The assay is carried out in the presence of the activator of the PDE 2 (5 μM of cGMP).

For the compound `CC(C)Cn1cc(C(=O)C(=O)Nc2c(Cl)cncc2Cl)c2cccnc21` [Example 27], the melting point lay in the range of 152 to 154 °C. Inhibition against PDE 4 was half-maximal at 2 nM (IC50).

At PDE 4, `O=C(Nc1c(Cl)cncc1Cl)C(=O)c1cn(Cc2ccc(F)cc2)c2ncccc12` [Example 14] displayed an IC50 of 4 nM.

Values taken from patent US7169787B2, “7-azaindoles, use thereof as phosphodiesterase 4 inhibitors and method for producing the same” (Elbion AG, priority 2000, dated 2007).
